Results as given in ChEMBL document CHEMBL3286198, “Targeting integrins αvβ3 and α5β1 with new β-lactam derivatives” (Eur J Med Chem, 2014).
The source made the active and inactive calls. No cut-off for these calls is given here.

Tests used:
Type in all cases: cell-based
Integrin alpha-V/beta-3 [1] = target: T1, Integrin alpha-V/beta-3 (Homo sapiens, UniProt P05106+P06756); experiment: Agonist activity at alphavbeta3 integrin in human SK-MEL-24 cells assessed as increase of fibronectin-mediated cell adhesion after 30 mins by fluorescence assay
[2] = target: Integrin alpha-IIb/beta-3 (Homo sapiens) (UniProt P05106+P08514); experiment: Agonist activity at alpha2bbeta3 integrin in PMA-stimulated human K562 cells assessed as increase of cell adhesion after 30 mins by flow cytometry in presence of tirofiban
K562 = experiment: Selectivity ratio of EC50 for alphavbeta3 integrin in human SK-MEL-24 cells to EC50 for alpha5beta1 integrin in human K562 cells
Integrin alpha-5/beta-1 [3] = target: T2, Integrin alpha-5/beta-1 (Homo sapiens, UniProt P05556+P08648); experiment: Agonist activity at alpha5beta1 integrin in human K562 cells assessed as increase of fibronectin-mediated cell adhesion at 10 ug/ml after 30 mins by fluorescence assay in presence of neutralizing antibody of beta1
Integrin alpha-V/beta-3 [4] = target: T1, Integrin alpha-V/beta-3; experiment: Agonist activity at alphavbeta3 integrin in human SK-MEL-24 cells assessed as increase of fibronectin-mediated cell adhesion at 10 ug/ml after 30 mins by fluorescence assay in presence of neutralizing antibodies of alphav
Integrin alpha-4/beta-1 = Integrin alpha-4/beta-1 (Homo sapiens, UniProt P05556+P13612); experiment: Antagonist activity at alpha4beta1 integrin in human Jurkat E6.1 cells assessed as inhibition of VCAM1-mediated cell adhesion after 30 mins by fluorescence assay
[5] = target: Integrin alpha-L/beta-2 (LFA-1) (Homo sapiens, UniProt P05107+P20701); experiment: Antagonist activity at alphaLbeta2 integrin in human Jurkat E6.1 cells assessed as inhibition of ICAM1-mediated cell adhesion after 30 mins by fluorescence assay
Integrin alpha-5/beta-1 [6] = target: T2, Integrin alpha-5/beta-1; experiment: Agonist activity at alpha5beta1 integrin in human K562 cells assessed as increase of cell adhesion after 30 mins by fluorescence assay
Integrin alpha-V/beta-3 [7] = target: T1, Integrin alpha-V/beta-3; experiment: Agonist activity at alphavbeta3 integrin in human SK-MEL-24 cells assessed as increase of cell adhesion after 30 mins by fluorescence assay
Integrin alpha-5/beta-1 [8] = target: T2, Integrin alpha-5/beta-1; experiment: Agonist activity at alpha5beta1 integrin in human K562 cells assessed as increase of fibronectin-mediated cell adhesion after 30 mins by fluorescence assay

Sequence of Integrin alpha-4/beta-1 (P05556 whole entry): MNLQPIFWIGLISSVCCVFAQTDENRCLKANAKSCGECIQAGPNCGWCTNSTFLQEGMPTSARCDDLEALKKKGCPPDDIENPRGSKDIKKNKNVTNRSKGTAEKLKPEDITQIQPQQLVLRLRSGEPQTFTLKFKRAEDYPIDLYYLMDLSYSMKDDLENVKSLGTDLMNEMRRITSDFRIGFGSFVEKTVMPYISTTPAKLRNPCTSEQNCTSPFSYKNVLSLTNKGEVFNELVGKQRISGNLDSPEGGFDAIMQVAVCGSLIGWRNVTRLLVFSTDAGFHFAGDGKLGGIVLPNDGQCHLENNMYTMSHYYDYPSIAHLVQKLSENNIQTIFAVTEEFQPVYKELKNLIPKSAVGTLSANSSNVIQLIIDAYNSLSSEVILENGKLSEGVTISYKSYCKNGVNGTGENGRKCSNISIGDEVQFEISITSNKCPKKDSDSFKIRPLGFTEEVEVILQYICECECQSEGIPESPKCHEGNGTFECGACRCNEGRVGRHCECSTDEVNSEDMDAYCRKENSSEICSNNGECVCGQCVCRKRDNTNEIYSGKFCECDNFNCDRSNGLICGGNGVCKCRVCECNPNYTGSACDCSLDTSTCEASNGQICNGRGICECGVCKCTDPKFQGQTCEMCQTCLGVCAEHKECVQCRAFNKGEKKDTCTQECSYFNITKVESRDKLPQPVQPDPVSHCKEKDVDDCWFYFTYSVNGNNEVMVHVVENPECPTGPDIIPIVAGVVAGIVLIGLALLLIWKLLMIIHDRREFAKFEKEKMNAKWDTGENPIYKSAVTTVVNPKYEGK
Sequence of Integrin alpha-4/beta-1 (P13612 whole entry): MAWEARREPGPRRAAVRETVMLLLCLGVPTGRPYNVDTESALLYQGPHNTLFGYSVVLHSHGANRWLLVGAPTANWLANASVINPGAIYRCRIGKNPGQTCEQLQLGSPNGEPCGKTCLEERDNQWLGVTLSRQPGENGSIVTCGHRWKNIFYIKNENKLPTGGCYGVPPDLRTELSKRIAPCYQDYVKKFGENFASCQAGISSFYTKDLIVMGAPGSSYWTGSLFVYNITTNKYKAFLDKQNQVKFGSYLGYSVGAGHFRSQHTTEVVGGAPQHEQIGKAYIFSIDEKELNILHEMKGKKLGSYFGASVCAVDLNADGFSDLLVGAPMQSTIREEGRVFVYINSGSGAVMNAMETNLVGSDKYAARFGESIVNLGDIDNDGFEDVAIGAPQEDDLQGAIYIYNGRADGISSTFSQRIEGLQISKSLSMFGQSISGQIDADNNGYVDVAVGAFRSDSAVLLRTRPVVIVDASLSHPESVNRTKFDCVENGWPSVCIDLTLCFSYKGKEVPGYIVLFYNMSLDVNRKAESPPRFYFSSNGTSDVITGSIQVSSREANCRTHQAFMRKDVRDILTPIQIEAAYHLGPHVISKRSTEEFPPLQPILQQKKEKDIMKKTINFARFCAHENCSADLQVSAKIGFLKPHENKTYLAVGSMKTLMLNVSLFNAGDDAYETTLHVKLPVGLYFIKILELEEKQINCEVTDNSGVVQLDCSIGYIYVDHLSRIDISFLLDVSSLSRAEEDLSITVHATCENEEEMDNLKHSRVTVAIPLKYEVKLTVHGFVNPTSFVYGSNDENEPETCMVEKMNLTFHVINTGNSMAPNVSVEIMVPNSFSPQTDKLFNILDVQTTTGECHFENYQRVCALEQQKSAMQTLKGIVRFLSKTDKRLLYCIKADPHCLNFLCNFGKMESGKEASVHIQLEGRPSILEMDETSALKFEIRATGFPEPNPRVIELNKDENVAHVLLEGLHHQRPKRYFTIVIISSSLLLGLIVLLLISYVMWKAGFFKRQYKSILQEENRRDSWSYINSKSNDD
Sequence of Integrin alpha-L/beta-2 (LFA-1) (P20701 whole entry): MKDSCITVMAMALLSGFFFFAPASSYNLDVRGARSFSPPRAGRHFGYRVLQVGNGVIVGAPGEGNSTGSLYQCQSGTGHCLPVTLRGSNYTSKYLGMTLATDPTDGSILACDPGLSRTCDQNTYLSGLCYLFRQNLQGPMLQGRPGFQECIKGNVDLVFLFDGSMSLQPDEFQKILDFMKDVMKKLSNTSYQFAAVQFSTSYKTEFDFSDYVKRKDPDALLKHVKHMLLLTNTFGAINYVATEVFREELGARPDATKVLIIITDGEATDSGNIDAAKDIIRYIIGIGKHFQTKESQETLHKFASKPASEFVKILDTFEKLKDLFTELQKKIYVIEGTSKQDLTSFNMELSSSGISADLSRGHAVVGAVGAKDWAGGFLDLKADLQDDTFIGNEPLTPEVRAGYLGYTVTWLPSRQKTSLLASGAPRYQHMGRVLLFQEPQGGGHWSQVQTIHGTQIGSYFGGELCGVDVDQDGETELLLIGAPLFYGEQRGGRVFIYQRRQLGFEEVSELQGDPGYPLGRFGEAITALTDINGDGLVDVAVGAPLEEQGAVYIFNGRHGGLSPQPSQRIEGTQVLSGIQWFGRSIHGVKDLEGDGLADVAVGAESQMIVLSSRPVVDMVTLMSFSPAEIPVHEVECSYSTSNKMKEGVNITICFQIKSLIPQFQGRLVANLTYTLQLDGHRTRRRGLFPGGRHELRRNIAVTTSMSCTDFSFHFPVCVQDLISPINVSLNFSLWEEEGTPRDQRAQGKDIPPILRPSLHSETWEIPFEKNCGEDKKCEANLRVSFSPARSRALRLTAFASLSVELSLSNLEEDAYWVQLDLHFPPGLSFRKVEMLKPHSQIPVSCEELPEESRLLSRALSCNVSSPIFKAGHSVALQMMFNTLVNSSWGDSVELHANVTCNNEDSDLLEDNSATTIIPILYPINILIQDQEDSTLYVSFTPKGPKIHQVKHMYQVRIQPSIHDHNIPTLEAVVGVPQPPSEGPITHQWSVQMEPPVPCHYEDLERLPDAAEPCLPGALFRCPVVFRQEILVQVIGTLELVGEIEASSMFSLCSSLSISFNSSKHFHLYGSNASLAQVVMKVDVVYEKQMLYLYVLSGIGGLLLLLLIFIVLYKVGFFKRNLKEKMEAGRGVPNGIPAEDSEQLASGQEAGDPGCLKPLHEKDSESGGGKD
Sequence of Integrin alpha-L/beta-2 (LFA-1) (P05107 whole entry): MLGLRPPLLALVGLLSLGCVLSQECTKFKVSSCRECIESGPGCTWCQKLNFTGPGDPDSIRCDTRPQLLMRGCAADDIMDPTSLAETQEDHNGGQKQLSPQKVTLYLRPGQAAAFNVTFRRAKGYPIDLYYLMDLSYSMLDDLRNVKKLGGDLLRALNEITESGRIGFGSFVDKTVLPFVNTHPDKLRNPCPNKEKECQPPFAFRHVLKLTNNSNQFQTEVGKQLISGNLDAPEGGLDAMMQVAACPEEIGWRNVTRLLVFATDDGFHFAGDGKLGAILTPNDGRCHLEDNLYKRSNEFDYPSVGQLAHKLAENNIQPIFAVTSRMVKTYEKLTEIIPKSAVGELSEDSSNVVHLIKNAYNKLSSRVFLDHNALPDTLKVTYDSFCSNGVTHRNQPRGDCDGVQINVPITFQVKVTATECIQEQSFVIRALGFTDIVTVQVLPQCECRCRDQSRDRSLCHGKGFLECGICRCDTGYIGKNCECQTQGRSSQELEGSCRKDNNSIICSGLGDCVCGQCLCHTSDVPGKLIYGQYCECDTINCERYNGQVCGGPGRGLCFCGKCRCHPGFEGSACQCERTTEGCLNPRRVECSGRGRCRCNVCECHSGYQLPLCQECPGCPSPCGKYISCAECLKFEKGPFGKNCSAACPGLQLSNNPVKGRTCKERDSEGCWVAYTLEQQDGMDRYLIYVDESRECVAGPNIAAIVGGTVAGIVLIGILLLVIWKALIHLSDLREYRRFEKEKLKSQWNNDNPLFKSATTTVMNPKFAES

| Activity (Integrin alpha-V/beta-3 [1]) | EC50 (Integrin alpha-V/beta-3 [1]) | Activity [2] | Activity (Integrin alpha-5/beta-1 [3]) | Activity (Integrin alpha-V/beta-3 [4]) | IC50 (Integrin alpha-4/beta-1) | IC50 [5] | Activity (Integrin alpha-5/beta-1 [6]) | Activity (Integrin alpha-V/beta-3 [7]) | Activity (Integrin alpha-5/beta-1 [8]) | EC50 (Integrin alpha-5/beta-1 [8]) | SMILES | Ratio EC50 (K562) |
| --- | --- | --- | --- | --- | --- | --- | --- | --- | --- | --- | --- | --- |
| Dose-dependent effect | 55 nM | Active | inactive | inactive | ≥ 100 µM | ≥ 100 µM | Active | Active | Dose-dependent effect | 12 nM | NCc1ccc(NC(=O)N2C(=O)CC2CC(=O)O)cc1 (stereo not drawn) | 5 |
| Dose-dependent effect | 10400 nM | – | – | – | – | – | – | – | Dose-dependent effect | 365 nM | NCc1ccc(NC(=O)N2C(=O)C[C@H]2C(=O)O)cc1 | 1000 |
| Dose-dependent effect | 11 nM | Active | inactive | inactive | ≥ 100 µM | ≥ 100 µM | Active | Active | Dose-dependent effect | 763 nM | NCc1ccc(NC(=O)N2C(=O)CC2CC(=O)NCC(=O)O)cc1 (stereo not drawn) | – |
